Earlier results as cited in US9670196B2, “Thiazole-substituted aminoheteroaryls as Spleen Tyrosine Kinase inhibitors” (Merck Sharp & Dohme Corp., priority 2013, dated 2017).

Columns and labels:
[1] = dosed intranasally, phase I/II study, allergic rhinitis; cited from earlier work
[2] = phase II clinical trial for allergic rhinitis; cited from earlier work

Oc1cccc(Nc2ncc(F)c(Nc3cccc(O)c3)n2)c1 [Example R112]
PGD2 [1]: statistically significant decrease
clinical safety [1]: safe across a range of indicators
efficacy versus placebo [2]: lack of efficacy versus placebo
